Assay [1] has as its system LN229 MGMT−/MMR+ and MGMT−/MMR− flank tumors. Kind of assay: Flank tumor second study: regimens, schedules, routes. The following applies: 5, 15, 25 mg/kg; MWF x 3 weeks or M-F x 1 week; PO or IP. Format: in vivo, mouse. An excerpt:
FIGS. 9A-91: KL-50 is safe and efficacious on both MGMT−/MMR+ and MGMT−/MMR-flank tumors over a wide range of treatment regimens and conditions. […] (FIG. 9C) Mean body weight of mice during LN229 flank tumor experiments. (FIG. 9D) Kaplan-Meier analysis of LN229 MGMT−/MMR− xenograft flank tumor-bearing mice to determine survival rate based on death, removal from study if mouse body weight loss exceeded 20% of initial body weight, or if tumor volume exceeded 2000 mm^3. […] (FIGS. 9H-91) Xenograft LN229 MGMT−/MMR+ and LN229 MGMT−/MSH6—flank tumors with a larger average starting tumor size of −400 mm^3 and −350 mm^3 respectively, treated with 3 weekly cycles of P.O administration of 10% cyclodextrin (n=4) or KL-50 (n=4, 3 cycles of 25 mg/kg on Monday, Wednesday, and Friday). The study period was limited by control groups which had to be euthanized for exceeding the ethical maximum allowed tumor size, thus ending the study. In all panels, points, mean; error bars, SEM; *, P<0.05; **, P<0.01; ***, P<0.001; ****, P<0.0001; ns, not significant.
In a second study, mice were randomized and administered either KL-50 or vehicle (10% cyclodextrin) by oral gavage or intraperitoneal injection on either M-F x 1 or MWF×3 cycles at 5, 15, or 25 mgs/kg. Caliper measurements were obtained during the dosing period and at least two weeks following treatment. […]

In assay [2] the test system is linearized pUC19 plasmid DNA. Kind of assay: In vitro DNA cross-linking assay. Format: biochemical. The following applies: 100 μM. The protocol: Plasmid Linearization Assay. To set up the linearization reactions, 20 units of EcoRI-HF (New England Biolabs) was mixed with 20 μg 2686 bp pUC19 vector DNA in CutSmart buffer (New England Biolabs), pH 7.9, in a total volume of 1000 μL for 30 min at 37° C. The CutSmart buffer contains 50 mM potassium acetate, 20 mM Tris acetate, 10 mM magnesium acetate, and 100 μg/mL BSA. The reacted DNA was then purified using PCR cleanup kit and quantified using the NanoDrop One (Thermo Fisher). The DNA was then stored at −20° C. before use in in vitro DNA cross-linking assays or melting temperature analysis.
In Vitro DNA Cross-linking Assays. Linearized pUC19 DNA, prepared as described above, was used for in vitro DNA cross-linking assays. For each condition, 200 ng of linearized pUC19 DNA (15.4 μM base pairs) was incubated with the indicated concentration of drug in 20 μL. Drug stock concentrations were made in DMSO such that each reaction contained a fixed 5% DMSO concentration. Reactions were conducted in 100 mM Tris buffer (pH 7.4). Cisplatin (Sigma) and DMSO vehicle were used as positive and negative controls, respectively. Reactions were conducted between 3-96 h at 37° C. The DNA was stored at −80° C. until electrophoretic analysis. For gel electrophoresis, DNA concentration was preadjusted to 10 ng/μL. […]

Assay [3] relates to linearized pUC19 plasmid DNA. Kind of assay: Melting temperature assay. The assay is classed as biochemical. To be noted: 100 or 500 μM for 3 h. The protocol:
(§1) Columns, mean; error bars, SD; n=2 independent analyses. For (A) and (C), points, mean; error bars, SD; n=3 technical replicates.
Melting Temperature Assay. Linearized pUC19 DNA (750 ng), prepared as described above, was incubated with the indicated concentration of either MMS or KL-50 adjusted in a final volume of 18 μL in 100 mM Tris buffer (pH 7.4) for 3 h. Drug stock concentrations were made in DMSO such that each reaction contained a fixed 5% DMSO concentration. Afterwards, 1 μL each of 20×SYBR Green dye (Invitrogen) and 20×ROX reference dye (Invitrogen) was added and melting temperature analysis was run on a StepOnePlus RT PCR System (Applied Biosciences) to generate melting temperature curves.

For assay [4], the system named is LN229 MGMT+/−, MMR+/− isogenic lines. In words: Short-term cell viability with ROS scavenger NAC. Format: cell-based, human. To be noted: increasing concentrations of NAC. How it is done: as §1
(§2) Short-term Cell Viability Assay. Cells were seeded in 96-well plates at 1000 or 2000 cells/well and allowed to adhere at 23° C. for 60 min and then incubated overnight at 37° C. Cells were treated with indicated concentrations of compounds in triplicate for 4-6 days prior to fixation with 3.7% paraformaldehyde and nuclear staining with 1 μg/mL Hoechst 33342 dye. Cells were imaged on a Cytation 3 imaging reader (BioTek) and quantified using CellProfiler software. For in vitro short-term growth delay experiments, IC50 values were determined from the nonlinear regression equation, [inhibitor] vs normalized response with variable slope.

For assay [5], the system named is isogenic mouse embryonic fibroblasts (MEFs) proficient or deficient in XPA. In words: Short-term cell viability, XPA proficient or deficient MEFs. The assay is classed as cell-based. To be noted: with or without O6BG-induced MGMT depletion. The protocol: as §1
The potential for alternative mechanisms of action for KL-50 were probed implicating nucleotide excision repair (NER), base excision repair (BER), reactive oxygen species (ROS), and DNA duplex destabilization.
as §2

The structures appear in SMILES notation.

As for `NC(=O)c1ncn2c(=O)n(CCF)nnc12` [KL-50], in assay [1], the “efficacy and toxicity across regimens” value was “effective and non-toxic”. Further, in assay [2], the “ICLs in plasmid DNA” value is “possessed ICLs, with delayed rates of formation”. Further, the “change in DNA melting temperature” value in assay [3] is reported as “comparable changes in measured DNA melting temperature”. Also, the “rescue of toxicity by ROS scavenger NAC” value in assay [4] is given as “did not result in rescue of KL-50 toxicity”. For the same compound, in assay [5], the “sensitivity of XPA-deficient vs proficient MEFs” value was “no differential sensitivity”.
